This passage reports mortality, Activity and LC50 results from ChEMBL document CHEMBL3045590, “Design, synthesis, bioactivity, and structure-activity relationship (SAR) studies of novel benzoylphenylureas containing oxime ether group” (2008).

The structures appear in SMILES notation. ≈ marks a conversion by molar mass, not a printed value.

What all share (type): functional
Test [1] has as its system Mythimna separata. As to the kind of experiment: Larvicidal activity against fourth-instar larval stage of Mythimna separata (Oriental armyworm) in compound-pretreated corn leaves assessed as mortality at 50 mg/l at 25 +/-1 degC after 4 days.
Test [2] relates to Culex pipiens pallens. The test can be described thus: Larvicidal activity against fourth-instar larval stage of Culex pipiens pallens (mosquito) assessed as mortality at 0.5 mg/l at 25 +/-1 degC after 8 days. As to conditions: 192 h.
Test [3] deals with Culex pipiens pallens. As to the kind of experiment: Larvicidal activity against fourth-instar larval stage of Culex pipiens pallens (mosquito) assessed as mortality at 2 mg/l at 25 +/-1 degC after 8 days. As to conditions: 192 h.
Test [4] concerns Culex pipiens pallens. As to the kind of experiment: Larvicidal activity against fourth-instar larval stage of Culex pipiens pallens (mosquito) assessed as mortality at 1 mg/l at 25 +/-1 degC after 8 days. As to conditions: 192 h.
In test [5] the test system is Mythimna separata. As to the kind of experiment: Larvicidal activity against fourth-instar larval stage of Mythimna separata (Oriental armyworm) in compound-pretreated corn leaves assessed as mortality at 10 mg/l at 25 +/-1 degC after 4 days.
In test [6] the test system is Mythimna separata. The test can be described thus: Larvicidal activity against fourth-instar larval stage of Mythimna separata (Oriental armyworm) in compound-pretreated corn leaves assessed as mortality at 100 mg/l at 25 +/-1 degC after 4 days.
Test [7] has as its system Culex pipiens pallens. The test can be described thus: Larvicidal activity against fourth-instar larval stage of Culex pipiens pallens (mosquito) assessed as mortality at 0.1 mg/l at 25 +/-1 degC after 8 days. As to conditions: 192 h.
In test [8] the test system is Culex pipiens pallens. As to the kind of experiment: Larvicidal activity against fourth-instar larval stage of Culex pipiens pallens (mosquito) assessed as mortality at 0.25 mg/l at 25 +/-1 degC after 8 days. The conditions noted are these: 192 h.
In test [9] the test system is Mythimna separata. The test can be described thus: Larvicidal activity against fourth-instar larval stage of Mythimna separata (Oriental armyworm) in compound-pretreated corn leaves assessed as mortality at 25 mg/l at 25 +/-1 degC after 4 days.
Test [10] concerns Mythimna separata. The test can be described thus: Larvicidal activity against fourth-instar larval stage of Mythimna separata (Oriental armyworm) in compound-pretreated corn leaves assessed as mortality at 200 mg/l at 25 +/-1 degC after 4 days.
For test [11], the system named is Mythimna separata. As to the kind of experiment: Larvicidal activity against fourth-instar larval stage of Mythimna separata (Oriental armyworm) in compound-pretreated corn leaves assessed as mortality at 2.5 mg/l at 25 +/-1 degC after 4 days.
For test [12], the system named is Culex pipiens pallens. As to the kind of experiment: Larvicidal activity against fourth-instar larval stage of Culex pipiens pallens (mosquito) assessed as mortality at 0.005 mg/l at 25 +/-1 degC after 8 days. The conditions noted are these: 192 h.
The test system of test [13] is Culex pipiens pallens. The test can be described thus: Larvicidal activity against fourth-instar larval stage of Culex pipiens pallens (mosquito) assessed as mortality at 0.001 mg/l at 25 +/-1 degC after 8 days. The conditions noted are these: 192 h.
In test [14] the test system is Mythimna separata. As to the kind of experiment: Larvicidal activity against fourth-instar larval stage of Mythimna separata (Oriental armyworm) in compound-pretreated corn leaves assessed as mortality at 5 mg/l at 25 +/-1 degC after 4 days.
Test [15] has as its system Culex pipiens pallens. As to the kind of experiment: Larvicidal activity against fourth-instar larval stage of Culex pipiens pallens (mosquito) assessed as mortality at 0.01 mg/l at 25 +/-1 degC after 8 days. The conditions noted are these: 192 h.
Test [16] concerns Culex pipiens pallens. As to the kind of experiment: Larvicidal activity against fourth-instar larval stage of Culex pipiens pallens (mosquito) assessed as mortality at 0.0025 mg/l at 25 +/-1 degC after 8 days. As to conditions: 192 h.
Test [17] has as its system Mythimna separata. As to the kind of experiment: Larvicidal activity against fourth-instar larval stage of Mythimna separata (Oriental armyworm) in compound-pretreated corn leaves assessed as mortality at 1 mg/l at 25 +/-1 degC after 4 days.
Test [18] concerns Culex pipiens pallens. The test can be described thus: Larvicidal activity against fourth-instar larval stage of Culex pipiens pallens (mosquito) assessed as mortality at 0.05 mg/l at 25 +/-1 degC after 8 days. The conditions noted are these: 192 h.
The test system of the next test is Cucumis sativus. As to the kind of experiment: Growth regulation of Cucumis sativus (cucumber) seeds assessed as stimulation of radicle growth at 10 mg/l at 26 degC after 5 days.
Test [19] concerns Mythimna separata. The test can be described thus: Larvicidal activity against fourth-instar larval stage of Mythimna separata (Oriental armyworm) in compound-pretreated corn leaves assessed as mortality at 25 +/-1 degC after 4 days.
Test [20] concerns Culex pipiens pallens. The test can be described thus: Larvicidal activity against fourth-instar larval stage of Culex pipiens pallens (mosquito) assessed as mortality at 0.025 mg/l at 25 +/-1 degC after 8 days. The conditions noted are these: 192 h.
Test [21] deals with Mythimna separata. The test can be described thus: Larvicidal activity against fourth-instar larval stage of Mythimna separata (Oriental armyworm) in compound-pretreated corn leaves assessed as mortality at 0.5 mg/l at 25 +/-1 degC after 4 days.

For the compound `O=C(NC(=O)c1c(F)cccc1F)Nc1ccc(/C=N/OCC2CCCC2)cc1`, the mortality – broadly, the share of the test organisms that died – at 50 µg/mL in the test on Mythimna separata [1] came to 10%. Also, in the test on Culex pipiens pallens [2], the mortality at 0.5 µg/mL came out at 10%. Also, the mortality at 2 µg/mL in the test with Culex pipiens pallens [3] turned out to be 100%. In addition, the mortality at 1 µg/mL in the test on Culex pipiens pallens [4] came to 100%. In the test on Mythimna separata [5], the mortality at 10 µg/mL is 0%. For the same compound, the mortality at 100 µg/mL in the test with Mythimna separata [6] stood at 40%. Moreover, in the test on Culex pipiens pallens [7], the mortality at 0.1 µg/mL worked out at 10%. The mortality at 0.25 µg/mL in the test on Culex pipiens pallens [8] stood at 10%. Further, the mortality at 25 µg/mL in the test with Mythimna separata [9] is 10%. Moreover, the mortality at 200 µg/mL in the test with Mythimna separata [10] stood at 80%.
For `O=C(NC(=O)c1c(F)cccc1F)Nc1ccc(/C=N/OCC2CC2)cc1`, in the test on Mythimna separata [11], the mortality at 2.5 µg/mL was found to be 90%. The mortality at 0.005 µg/mL with Culex pipiens pallens [12] amounted to 100%. In addition, the mortality at 0.001 µg/mL in the test on Culex pipiens pallens [13] stood at 0%. The mortality at 10 µg/mL with Mythimna separata [5] was 100%. In addition, in the test on Mythimna separata [14], the mortality at 5 µg/mL is 100%. The mortality at 0.01 µg/mL in the test with Culex pipiens pallens [15] is 100%. For the same compound, in the test on Culex pipiens pallens [16], the mortality at 0.0025 µg/mL came out at 60%. In addition, the mortality at 25 µg/mL with Mythimna separata [9] came to 100%. Also, the mortality at 1 µg/mL in the test on Mythimna separata [17] turned out to be 0%.
Take `C[Si](C)(C)O/N=C/c1ccc(NC(=O)NC(=O)c2c(F)cccc2F)cc1`: in the test with Mythimna separata [1], the mortality at 50 µg/mL turned out to be 0%. For the same compound, in the test on Culex pipiens pallens [2], the mortality at 0.5 µg/mL amounted to 100%. The mortality at 2 µg/mL in the test with Culex pipiens pallens [3] was 100%. In the test on Culex pipiens pallens [4], the mortality at 1 µg/mL amounted to 100%. Further, the mortality at 100 µg/mL in the test on Mythimna separata [6] was found to be 60%. Further, in the test with Culex pipiens pallens [8], the mortality at 0.25 µg/mL turned out to be 0%. The mortality at 200 µg/mL in the test with Mythimna separata [10] was 100%.
Turning to `O=Cc1ccc(NC(=O)NC(=O)c2c(F)cccc2F)cc1`, in the test with Culex pipiens pallens [2], the mortality at 0.5 µg/mL stood at 0%. Further, in the test on Culex pipiens pallens [3], the mortality at 2 µg/mL came to 100%. In the test on Culex pipiens pallens [4], the mortality at 1 µg/mL was found to be 80%. Also, the mortality at 100 µg/mL in the test with Mythimna separata [6] is 0%. The mortality at 200 µg/mL in the test on Mythimna separata [10] amounted to 0%.
Take `O=C(NC(=O)c1c(F)cccc1F)Nc1ccc(/C=N/O)cc1`: the mortality at 0.5 µg/mL in the test with Culex pipiens pallens [2] worked out at 60%. Besides, the mortality at 2 µg/mL with Culex pipiens pallens [3] was 100%. For the same compound, the mortality at 1 µg/mL in the test with Culex pipiens pallens [4] is 100%. In addition, the mortality at 0.1 µg/mL with Culex pipiens pallens [7] was 10%. For the same compound, the mortality at 0.25 µg/mL in the test with Culex pipiens pallens [8] was determined as 40%. The mortality at 200 µg/mL in the test with Mythimna separata [10] came out at 80%.
As to `CCCCCO/N=C/c1ccc(NC(=O)NC(=O)c2c(F)cccc2F)cc1`, in the test with Culex pipiens pallens [18], the mortality at 0.05 µg/mL was determined as 0%. Moreover, the mortality at 50 µg/mL in the test on Mythimna separata [1] amounted to 90%. For the same compound, the mortality at 0.5 µg/mL in the test with Culex pipiens pallens [2] was determined as 90%. The Activity with Cucumis sativus stood at 50%. Moreover, the mortality at 2 µg/mL in the test with Culex pipiens pallens [3] came to 100%. Moreover, in the test on Culex pipiens pallens [4], the mortality at 1 µg/mL was 100%. Besides, in the test with Mythimna separata [5], the mortality at 10 µg/mL worked out at 0%. The mortality at 0.1 µg/mL in the test with Culex pipiens pallens [7] is 15%. Also, in the test on Culex pipiens pallens [8], the mortality at 0.25 µg/mL is 80%. Moreover, the mortality at 25 µg/mL in the test with Mythimna separata [9] turned out to be 20%.
Take `O=C(NC(=O)c1c(F)cccc1F)Nc1cc(Cl)c(Oc2ncc(C(F)(F)F)cc2Cl)c(Cl)c1` [CHLORFLUAZURON]: the LC50 – broadly, the concentration that kills 50% of the test population – in the test on Mythimna separata [19] amounted to 1.03 mg/L (≈ 1.91 µM).
On the same count and under the same terms, for `O=C(NC(=O)c1c(Cl)cccc1Cl)Nc1ccc(Cl)cc1` [DICHLORBENZURON] the value was 1.82 mg/L (≈ 5.3 µM).
`O=C(NC(=O)c1c(F)cccc1F)Nc1ccc(CO/N=C(/c2ccc(Cl)cc2)C2CC2)cc1` [FLUCYCLOXURON]: the mortality at 0.05 µg/mL in the test on Culex pipiens pallens [18] turned out to be 100%. For the same compound, the mortality at 0.025 µg/mL in the test on Culex pipiens pallens [20] came out at 15%. In the test with Mythimna separata [11], the mortality at 2.5 µg/mL came out at 50%. Further, in the test with Mythimna separata [5], the mortality at 10 µg/mL was 95%. In addition, the mortality at 0.1 µg/mL in the test with Culex pipiens pallens [7] amounted to 100%. In the test on Mythimna separata [14], the mortality at 5 µg/mL was found to be 90%. Besides, the mortality at 0.01 µg/mL in the test on Culex pipiens pallens [15] was 0%. The LC50 with Mythimna separata [19] was 2.44 mg/L (≈ 5.04 µM). Further, in the test on Mythimna separata [21], the mortality at 0.5 µg/mL stood at 0%. Also, the mortality at 1 µg/mL with Mythimna separata [17] came to 10%.
Consider `O=C(NC(=O)c1c(F)cccc1F)Nc1cc(Cl)c(OC(F)(F)C(F)F)c(Cl)c1` [HEXAFLUMURON], for which, in the test on Mythimna separata [19], the LC50 was 4.7 mg/L (≈ 10.2 µM).
For `O=C(NC(=O)c1c(F)cccc1F)Nc1cc(Cl)c(F)c(Cl)c1F` [TEFLUBENZURON], the LC50 with Mythimna separata [19] worked out at 1.14 mg/L (≈ 2.99 µM).
